Experiments:
[1] = test system: HepG2 cells (human hepatic carcinoma); test: Antiproliferative activity, 48 h treatment, ATPlite luminescence assay, HepG2; type: cell-based; details: Homo sapiens, HepG2, read-out: Antiproliferative activity (IC50 ± S.D., μM) HepG2
Experimental: HepG2: maintained in EMEM medium+10% FCS.
(§1) 24 hours after seeding, an aliquot (10 μl) of the drug at the various concentrations is added (for each concentration there are 3 replicates). After 48 hours of treatment the antiproliferative effect is evaluated with a luminescence assay (Perkin Elmer Life Sciences ATPlite):
(§2) 50 μl of a lysis solution are added to each well followed by an equal volume of a solution containing luciferase and D-luciferin. The ATP present in all the metabolically active cells brings about the transformation reaction of D-luciferin, catalysed by luciferase, to produce a luminescent signal as described in the following scheme: ATP+D-luciferin+O2→Oxyluciferin+AMP+PPi+CO2+Light
(§3) The luminescence produced (expressed in counts per second, CPS) is measured by means of a microplate scintillation analyzer (Perkin Elmer Life Sciences Top Count).
(§4) Percentage inhibition of luminescence in the treated cells compared to the control is calculated; concentration-response curves are then analysed using Grafit v.5.0.

[2] = test system: SK-N-BE(2) cells (human neuroblastoma); test: Antiproliferative activity, 48 h treatment, ATPlite luminescence assay, SK-N-BE(2); type: cell-based; details: Homo sapiens, SKNBE2, 48 h, read-out: Antiproliferative activity (IC50 ± S.D., μM) SK-N-BE(2)
Experimental: SH-SY5Y and SK-N-BE(2): maintained in HAM-F12 medium+10% FCS.
as §1, §2, §3, §4

[3] = test system: A2780 cells (human ovarian carcinoma); test: Antiproliferative activity, 48 h treatment, ATPlite luminescence assay, A2780; type: cell-based; details: Homo sapiens, A2780, 48 h, read-out: Antiproliferative activity (IC50 ± S.D., μM) A2780
Experimental: as §1, §2, §3, §4

HT29 line = test: Apoptosis experiment (Tunel); type: cell-based, human
Experimental: 1.5×10^6 cells/sample are seeded. After 24 hours the cells are treated with the compounds for 48 or 72 hours. At the end of the treatment, the cells are detached with Trypsin/EDTA, washed in PBS (phosphate buffered solution) and incubated for 45 minutes at room temperature in 1 ml of 4% paraformaldehyde.
The cells are then washed with PBS and resuspended in 100 μl of permeabilizing solution (0.1% triton in 0.1% sodium citrate) for 2 minutes in ice. After a further wash, the cells are resuspended in 50 μl of Tunel reaction mix (Boehringer Mannheim) and left at 37° C. for 1 hour in the dark. After washing in PBS, the cells are resuspended in PBS and analysed by cytofluorimeter or examined by fluorescence microscope.

[4] = test system: HT29/Mit human colon carcinoma xenografts; test: HT29/Mit human colon carcinoma xenografts, antitumor activity; type: in vivo, athymic Swiss nude mice; details: HT29/Mit xenograft, p.o.; topotecan 15 mg/Kg every 4 days for 3 administrations; compound of example 2 30 mg/kg; alone or combined
Experimental: Female athymic Swiss nude mice (8-10 weeks old) (Charles River, Calco, Italy) were used for the experiments. The animals were maintained at constant temperature and humidity, and were allowed to eat and drink freely. The experimental protocol was approved by the Ethics Committee for Animal Experimentation of the Istituto Nazionale Tumori of Milan.
The antitumour effectiveness of the compounds of the invention under discussion was tested on athymic mouse models implanted with HT29 and/or HT29/Mit tumour cells: this latter variety is highly resistant to topotecan treatment. The tumour cells were implanted in vivo via subcutaneous injection of 10^7 cells taken from in vitro cultures. Randomized groups of five mice with bilateral subcutaneous tumours were used for the experiment.
Topotecan or other known antitumour agents (dissolved in distilled water or an appropriate solvent) and the compounds of the invention (dissolved in Cremophor EL:ethanol:saline solution in the proportions 5:5:90, or in an appropriate solvent) were administered orally from the third day, alone or in combination, in agreement with a treatment scheme selected in an appropriate manner depending on the type of compound to be studied.
The weight (or volume) of the tumour in treated mice compared to controls is represented graphically on the y-axis against time (x-axis).

[5] = test system: H460 spontaneous lung metastasis; test: H460 xenograft, spontaneous lung metastasis (antimetastatic activity); type: in vivo, athymic Swiss nude mice; details: topotecan 1 mg/kg, compound of example 2 30 mg/kg p.o.
Experimental: At day 63, tumor-bearing mice were sacrificed by cervical dislocation and their lungs were removed and weighed. Lung lobes were spliced between two glass slides and the metastatic nodules were macroscopically counted against a bright light (Corti C, J. Cancer Res. Clin. Oncol. 122, 154-60, 1996). […] Reading of metastasis was performed by two independent observers, unaware of the experimental group, with an interobserver reproducibility >95%. The metastatic nature of these areas was confirmed by histological analysis of digital images obtained by Image Analysis System software (Delta System, Rome, Italy).

[6] = Drug tolerability in H460 tumor-bearing mice (lethal toxicity); details: athymic Swiss nude, mouse, in vivo, 8 weeks
Experimental: The effects of the compounds of the invention and/or topotecan on the growth of primary tumors and spontaneous lung metastasis were tested in mice inoculated s.c. in the right flank with H460 ascitic tumor cells (2×10^6/mouse). Each control or drug-treated group included 9-11 mice. The s.c. tumor growth was followed by biweekly measurements of tumor diameters with a Vernier caliper. Drug treatment was delivered orally, for 8 weeks, from day 1. Topotecan was delivered at the dose of 1 mg/kg and compounds of the invention were delivered at the dose of 30 mg/kg; in the combination group the compounds of the invention were delivered almost 1 hour after topotecan treatment. Control mice were solvent-treated orally in parallel with drug treatments.
Drug efficacy was assessed as mean percentage tumor weight inhibition in drug-treated versus control mice expressed as tumor weight inhibition % (TWI %)=100−(mean tumor weight treated/mean tumor weight control×100), evaluated during and after drug treatment. Drug tolerability was assessed in tumor-bearing mice as either lethal toxicity, i.e., any death in treated mice occurring before any control death, or percentage body weight loss (BWL %)=100−(body weight on day x/body weight on day 1×100), where x represents a day after or during the treatment period.

Molecule `CCOc1cc(C(=O)NC2CC(C)(C)NC(C)(C)C2)ccc1-c1cc2cc(Cl)c(Cl)cc2[nH]1` [Example 2] has an IC50 [1] of 2 ± 0.1 µM, an IC50 [2] of 3.7 ± 0.2 µM and an IC50 [3] of 1.9 ± 0.1 µM. The Induction of apoptosis (HT29 line) was “high level of apoptosis”, the “Inhibition of tumour growth” value [4] was “poorly effective” and the “Lung No. Metastasis (range)” value ([5]; day 63) was “reduced”. The “Lung Weight (mg) (mean ± S.D.)” value ([5]; day 63) was 177 ± 30 mg, the “Lung No. Metastasis (range)” value ([5]; day 63, listed as Compound of example 2) was 15 (3-56) and the “Lung metastasis Inhibition %” value ([5]; inhibition of number of metastasis vs controls) was 42%. For the same molecule, the “Tox/Tot (any death in treated mice occurring before any control mice)” value [6] was 0/10.

From US20070299084A1, “Indole Derivatives Useful for Treating Resistance to Antitumor Agents” (NIKEM RESE S.R.L., priority 2004, published 2007)
